Assay results published in patent US20180303824A1, “Compositions for deterring abuse of pharmaceutical products and alcohol” (priority 2015, published 2018).
Counter-ions that a name gives are not always drawn.

Key:
[1] = Electrical conductivity of clay dispersions and drug solutions; assay type: physicochemical; conditions: for Conductivity, Mean / Conductivity, Trial 1 / Conductivity, Trial 2 / Conductivity, Trial 3 / pH, Mean / pH, Trial 1 / pH, Trial 2 / pH, Trial 3: dispersions
[2] = pH 3
Experimental: Into 10 mL of drug solution (containing 25 mg of tramadol HCl), 50 mg of talc was added and vortexed for 5 seconds followed by centrifugation @1500 rpm for 5 minutes. The solution was filtered through a 0.2 μm syringe filter; 0.5 ml of the supernatant solution was diluted with 10 ml of solvent, and then analyzed for drug concentration by UV spectroscopy @271 nm.
Into 10 mL of drug solution (containing 25 mg of tramadol HCl), 50 mg of zinc acetate was added and vortexed for 5 seconds followed by centrifugation @1500 rpm for 5 minutes. The solution was filtered through a 0.2 μm syringe filter; 0.5 ml of the supernatant solution was diluted with 10 ml of solvent, and then analyzed for drug concentration by UV spectroscopy @271 nm.
The solution was filtered through a 0.2 μm syringe filter; 0.5 ml of the supernatant solution was diluted with 10 ml of solvent, and then analyzed for drug concentration by UV spectroscopy @271 nm.

Row | SMILES | Conductivity, Mean [1] [mV] | Conductivity, Trial 1 [1] [mV] | Conductivity, Trial 2 [1] [mV] | Conductivity, Trial 3 [1] [mV] | pH, Mean [1] | pH, Trial 1 [1] | pH, Trial 2 [1] | pH, Trial 3 [1] | % Bound [2] [%] | Cond. ([1]; drug solution in 0.1N HCl, 100 μg/mL) [mV] | Cond. ([1]; drug solution in 0.1N HCl, 200 μg/mL) [mV] | Cond. ([1]; drug solution in 0.1N HCl, 250 μg/mL) [mV] | Cond. ([1]; drug solution in 0.1N HCl, 500 μg/mL) [mV] | Cond. ([1]; drug solution in 0.1N HCl, 1000 μg/mL) [mV] | Cond. ([1]; drug solution in ultrapure deionized water, 100 μg/mL) [mV] | Cond. ([1]; drug solution in ultrapure deionized water, 200 μg/mL) [mV] | Cond. ([1]; drug solution in ultrapure deionized water, 250 μg/mL) [mV] | Cond. ([1]; drug solution in ultrapure deionized water, 500 μg/mL) [mV] | Cond. ([1]; drug solution in ultrapure deionized water, 1000 μg/mL) [mV]
1 | O=C([O-])[O-].[Na+].[Na+] [Na2CO3] | −247.7 | −247.4 | −248.3 | −247.5 | 11.40 | 11.40 | 11.42 | 11.40 |  |  |  |  |  |  |  |  |  |  | 
2 | [Cl-].[Na+] [NaCl] | 40.3 | 34.7 | 33.6 | 52.6 | 6.38 | 6.48 | 6.50 | 6.16 |  |  |  |  |  |  |  |  |  |  | 
3 | CC(=O)[O-].CC(=O)[O-].[Zn+2] [Zinc Acetate] |  |  |  |  |  |  |  |  | 2.9 |  |  |  |  |  |  |  |  |  | 
4 | CN(C)CCOC(c1ccccc1)c1ccccc1 [diphenhydramine HCl] |  |  |  |  |  |  |  |  |  | 334.4 | 333.5 | 333.2 | 333.7 | 332.1 | 28.2 | 24.5 | 21.3 | 21.3 | 31.3
